# Reference: ChEMBL document CHEMBL1201862, “PubChem BioAssay data set” (2004)
#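 Briefly, cells in 96-well plates were exposed to five compound concentrations for 48 h, and endpoints were estimated by linear interpolation. At the GI50, growth is halved.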 Active and inactive are the calls of the source. Cut-off read from the data, not from the text of the source: active = GI50 up to about 1.1 µM and inactive = higher.
# Tests used:
# Assay in all cases: growth of human tumour cells (NCI), 48 h
# RPMI-8226 = tested on: RPMI-8226
# OVCAR-3 = tested on: OVCAR-3
# MDA-N = tested on: MDA-N
# CCRF-CEM = tested on: CCRF-CEM
# NCI-H226 = tested on: NCI-H226
# SN12C = tested on: SN12C
# MDA-MB-231 = tested on: MDA-MB-231
# HOP-62 = tested on: HOP-62
# SW-620 = tested on: SW-620
# SK-OV-3 = tested on: SK-OV-3
# COLO 205 = tested on: COLO 205
# TK-10 = tested on: TK-10
# IGROV-1 = tested on: IGROV-1
# A498 = tested on: A498
# A549 = tested on: A549
# Malme-3M = tested on: Malme-3M
# SK-MEL-5 = tested on: SK-MEL-5
# EKVX = tested on: EKVX
# 786-0 = tested on: 786-0
# RXF 393 = tested on: RXF 393
Compound,GI50 (RPMI-8226),GI50 (OVCAR-3),GI50 (MDA-N),GI50 (CCRF-CEM),GI50 (NCI-H226),GI50 (SN12C),GI50 (MDA-MB-231),GI50 (HOP-62),GI50 (SW-620),GI50 (SK-OV-3),GI50 (COLO 205),GI50 (TK-10),GI50 (IGROV-1),GI50 (A498),GI50 (A549),GI50 (Malme-3M),GI50 (SK-MEL-5),GI50 (EKVX),GI50 (786-0),GI50 (RXF 393)
C=C1CC(Cn2cc(C)c(=O)[nH]c2=O)(c2ccc(Cl)cc2)OC1=O (stereo not given),0.414 µM (active),3.6 µM (inactive),2.99 µM (inactive),0.855 µM (active),13.4 µM (inactive),7.05 µM (inactive),3.05 µM (inactive),15.8 µM (inactive),1.44 µM (inactive),14.9 µM (inactive),1.42 µM (inactive),1.68 µM (inactive),1.53 µM (inactive),5.94 µM (inactive),16.6 µM (inactive),1.88 µM (inactive),2.67 µM (inactive),11.9 µM (inactive),1.56 µM (inactive),
O=C1CSC2(CC(/C=C/c3cccs3)=NN2c2cccc(S(=O)(=O)O)c2)N1c1nc2ccccc2s1 (stereo not given),31.1 µM (inactive),,> 100 µM (inactive),33 µM (inactive),39.9 µM (inactive),> 100 µM (inactive),> 100 µM (inactive),,> 100 µM (inactive),,> 100 µM (inactive),62.1 µM (inactive),27.4 µM (inactive),15.6 µM (inactive),> 100 µM (inactive),> 100 µM (inactive),> 100 µM (inactive),52.6 µM (inactive),88.3 µM (inactive),> 100 µM (inactive)
Cn1c2ccccc2c(=NNc2ccc(S(N)(=O)=O)cc2)c2ccccc21,9.35 µM (inactive),19.5 µM (inactive),15.9 µM (inactive),4.58 µM (inactive),10.9 µM (inactive),18.4 µM (inactive),9.23 µM (inactive),15.3 µM (inactive),21.8 µM (inactive),20.2 µM (inactive),18.7 µM (inactive),15 µM (inactive),17.7 µM (inactive),,11.7 µM (inactive),17.9 µM (inactive),8.24 µM (inactive),12 µM (inactive),21 µM (inactive),16.2 µM (inactive)
Cc1ccc(/C=C2\N=C(N3CCOCC3)NC2=O)cc1,> 100 µM (inactive),> 100 µM (inactive),> 100 µM (inactive),> 100 µM (inactive),> 100 µM (inactive),> 100 µM (inactive),> 100 µM (inactive),77.6 µM (inactive),> 100 µM (inactive),> 100 µM (inactive),> 100 µM (inactive),> 100 µM (inactive),> 100 µM (inactive),,> 100 µM (inactive),> 100 µM (inactive),,> 100 µM (inactive),> 100 µM (inactive),> 100 µM (inactive)
O=C1NC(N2CCCCC2)=N/C1=C\c1ccco1,> 100 µM (inactive),> 100 µM (inactive),> 100 µM (inactive),> 100 µM (inactive),67.9 µM (inactive),> 100 µM (inactive),> 100 µM (inactive),> 100 µM (inactive),> 100 µM (inactive),> 100 µM (inactive),> 100 µM (inactive),> 100 µM (inactive),54.7 µM (inactive),,> 100 µM (inactive),> 100 µM (inactive),> 100 µM (inactive),78.2 µM (inactive),> 100 µM (inactive),> 100 µM (inactive)
O=C1Cc2c([nH]c3c(Cl)cccc23)-c2ccccc2N1,> 100 µM (inactive),> 100 µM (inactive),> 100 µM (inactive),> 100 µM (inactive),> 100 µM (inactive),> 100 µM (inactive),> 100 µM (inactive),> 100 µM (inactive),> 100 µM (inactive),> 100 µM (inactive),> 100 µM (inactive),> 100 µM (inactive),> 100 µM (inactive),> 100 µM (inactive),> 100 µM (inactive),> 100 µM (inactive),> 100 µM (inactive),,> 100 µM (inactive),
